Results from patent publication US20260125736A1, “FURIN SENSORS AND APPLICATIONS THEREOF” (FLAREON BIOTECH GMBH, priority 2023, published 2026).
Primed or numbered codes have the meaning given here. Ends that are not written are not given here. * marks the point of attachment. Dabcyl′ = 4-((4-(dimethylamino)phenyl)azo)benzoic acid, CN(C)c1ccc(/N=N/c2ccc(C(=O)*)cc2)cc1; EDANS = O=S(=O)(O)c1cccc2c(NCCN*)cccc12

Assays:
HNSCC tissue = type: cell-based, human
furin [1] = molecular target: T1, furin (Homo sapiens, UniProt P09958); test: Cleavage of FRET sensors by furin / illumination of C1S; type: biochemical; conditions: C1S 10 μM incubated with furin for 60 min, illuminated at 350 nm; compared with C1S without furin
T1 sequence (P09958 108-794): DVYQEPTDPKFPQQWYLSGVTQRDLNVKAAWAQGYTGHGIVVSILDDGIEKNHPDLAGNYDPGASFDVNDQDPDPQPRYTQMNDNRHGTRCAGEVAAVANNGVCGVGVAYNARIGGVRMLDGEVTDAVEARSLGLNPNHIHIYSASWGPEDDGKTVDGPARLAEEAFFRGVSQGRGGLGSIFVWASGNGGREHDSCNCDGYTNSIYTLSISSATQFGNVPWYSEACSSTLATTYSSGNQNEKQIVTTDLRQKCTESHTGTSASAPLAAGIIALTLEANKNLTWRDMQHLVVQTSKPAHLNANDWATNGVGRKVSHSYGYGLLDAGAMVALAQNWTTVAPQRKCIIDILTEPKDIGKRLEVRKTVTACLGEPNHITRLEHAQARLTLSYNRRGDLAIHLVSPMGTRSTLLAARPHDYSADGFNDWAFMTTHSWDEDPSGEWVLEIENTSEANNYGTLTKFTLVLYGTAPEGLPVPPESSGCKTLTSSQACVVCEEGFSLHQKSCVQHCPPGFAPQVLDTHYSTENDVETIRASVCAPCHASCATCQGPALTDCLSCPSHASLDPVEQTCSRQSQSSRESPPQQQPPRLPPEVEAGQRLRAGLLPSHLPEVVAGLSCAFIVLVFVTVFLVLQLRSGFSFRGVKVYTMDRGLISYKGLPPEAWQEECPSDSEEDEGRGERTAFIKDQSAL
Description: Negative controls were performed without furin. Experiments were performed n=3. The samples were analyzed using an Infinite M plex (Tecan trading AG, Mannedorf, Switzerland) with an excitation wavelength of λ=340 nm and an emission wavelength of A =490 nm.
Sensor C1S was incubated as described before under cleavage of FRET sensors with and without furin for 60 min and illuminated via Universal UV Lampe (CAMAG, Germany) with λ=350 nm.

HNSCC tumor tissue = test: FRET-based sensor tissue incubation (fluorescence, ex 340 nm / em 490 nm); type: cell-based, human; conditions: 10 μM sensor, incubation over 60 min, 37° C., cleavage determined against blank (intact sensor)
Description: All included patients were diagnosed with primary oral squamous cell carcinoma (OSCC). Patients suffering from other tumor entities as well as inoperable cases were excluded from this study.
After performing preoperative tumor staging and incisional biopsy to confirm the diagnosis, stage-appropriate tumor resection, lymph-node dissection, and reconstruction took place. Tumor resection was performed in the usual way, which included using separate margins for frozen section analysis in order to confirm in sano resection. […]
Tissues were stored on ice in sterile filtered in cell culture medium (RPMI-1640, Dutch modification, 10% FCS, 1% Penicillin/Streptomycin, Nystatin). […] After the 24h incubation, one of the tumor tissues was analyzed using FDA. […] The tumor tissue was incubated for 5 min and analyzed via Axio Observer.Z1 microscope equipped with an A-Plan 10×/0.25 Ph1 objective (Zeiss), 38 HE Green Fluorescent Protein (λex=450-490 nm, λem=500-550 nm) and a mercury vapor short-arc lamp.
Tissues were prepared as described before. […] The tissues were incubated at 37° C. and analyzed at t=0, 5, 10, 15, 20, 25, 30, 40, 50 and 60 min via an Infinite M plex (Tecan trading AG, Mannedorf, Switzerland) with an excitation wavelength of λ=340 nm and an emission wavelength of λ=490 nm. […]

furin [2] = molecular target: T1, furin; test: Peptide cleavage by furin, analysed by HPLC (AUC of main peak vs negative control without furin); conditions: cleavage of PSL via furin within 15 min; 0.1 mM peptide, 1 U furin, 37° C., n=3

Cleavage (furin [2]) [%] | Substance | time after which a fluorescent signal difference between HNSCC and healthy tissue is visually recognizable (HNSCC tissue) [min] | visual difference between healthy and HNSCC tissues in the first 30 minutes (HNSCC tissue) | fluorescence observed visually after incubation with furin (furin [1]) | fold increase of sensor cleavage of the tumor tissue compared to healthy tissue (HNSCC tumor tissue) [fold]
 | Ac-EG-K(Dabcyl)-RTAMTAGA-E(Edans)-GE (Ac-EGK(Dabcyl′)RTAMTAGAE(EDANS)GE) [Z3S] | 35 | no difference could be observed |  | 
 | Ac-K(Dabcyl)-RRARSVAS-E(Edans) (Ac-K(Dabcyl′)RRARSVASE(EDANS)) [C1S] | 5 |  | distinct cyan fluorescence | > 2
26.16 | RTAMSAGA [Z5] |  |  |  | 
